Structures are written as SMILES. Where “and” joins values, the source holds several entries; their conditions need not be identical. Identical values can stand only once. Toxic doses and inconclusive results are not listed. Residues, ends and D or L forms follow the SMILES beside them. *: point of attachment. Cbz = O=C(OCc1ccccc1)*

17 compounds from PubChem BioAssay AID328 (DTP/NCI, 2004) can be followed below.

This test has as its system BDF1 mice, P388 leukemia ip, median survival T/C. The test is described as follows: NCI In Vivo Anticancer Drug Screen. Data for tumor model P388 Leukemia (intraperitoneal) in B6D2F1 (BDF1) mice. The settings on record: endpoint: median survival time, higher = longer survival. The essentials: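 Transplantable tumour in mice; compound vs vehicle dosing; survival scored; ratio of treated to control reported.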

[1] abbreviates: dose: 100.0 mg/kg/injection, schedule: Q01DX009 (ip), vehicle: saline with Tween-80.
Where [2] appears, read: dose: 100.0 mg/kg/injection, schedule: Q04DX003 (ip), vehicle: saline with Tween-80.
[3] abbreviates: dose: 50.0 mg/kg/injection, schedule: Q01DX005 (ip), vehicle: saline with Tween-80.
Where [4] appears, read: dose: 100.0 mg/kg/injection, schedule: Q01DX009 (ip), vehicle: saline.
[5] abbreviates: dose: 25.0 mg/kg/injection, schedule: Q01DX009 (ip), vehicle: saline with Tween-80.
[6] abbreviates: dose: 50.0 mg/kg/injection, schedule: Q01DX009 (ip), vehicle: saline with Tween-80.
Where [7] appears, read: dose: 100.0 mg/kg/injection, schedule: Q01DX009 (ip), vehicle: Klucel (hydroxypropylcellulose) (HPC).
The mark [8] stands for this setting: dose: 200.0 mg/kg/injection, schedule: Q01DX009 (ip), vehicle: Klucel (hydroxypropylcellulose) (HPC).
The mark [9] stands for this setting: dose: 100.0 mg/kg/injection, schedule: Q04DX003 (ip), vehicle: Klucel (hydroxypropylcellulose) (HPC).
Setting [10] is: dose: 200.0 mg/kg/injection, schedule: Q04DX003 (ip), vehicle: Klucel (hydroxypropylcellulose) (HPC).
Where [11] appears, read: dose: 400.0 mg/kg/injection, schedule: Q04DX003 (ip), vehicle: Klucel (hydroxypropylcellulose) (HPC).
Where [12] appears, read: dose: 25.0 mg/kg/injection, schedule: Q01DX009 (ip), vehicle: saline.
The mark [13] stands for this setting: dose: 50.0 mg/kg/injection, schedule: Q01DX009 (ip), vehicle: saline.
The mark [14] stands for this setting: dose: 50.0 mg/kg/injection, schedule: Q01DX009 (ip), vehicle: Klucel (hydroxypropylcellulose) (HPC).

With `CN=C(N)c1ccc(NC(=O)c2ccc(C(=O)Nc3ccc(C(N)=NC)cc3)c(N)c2)cc1`, the T/C is 107 % of control (dose: 2.0 mg/kg/injection, schedule: Q04DX003 (ip), vehicle: Klucel (hydroxypropylcellulose) (HPC)); 190 % of control (dose: 2.6 mg/kg/injection, schedule: Q01DX009 (ip), vehicle: Klucel (hydroxypropylcellulose) (HPC)); 115 % of control (dose: 3.0 mg/kg/injection, schedule: Q04DX003 (ip), vehicle: Klucel (hydroxypropylcellulose) (HPC)); 263 % of control (dose: 4.0 mg/kg/injection, schedule: Q01DX009 (ip), vehicle: Klucel (hydroxypropylcellulose) (HPC)); 272 % of control (dose: 6.0 mg/kg/injection, schedule: Q01DX009 (ip), vehicle: Klucel (hydroxypropylcellulose) (HPC)); 150 % of control (dose: 6.25 mg/kg/injection, schedule: Q01DX009 (ip), vehicle: Klucel (hydroxypropylcellulose) (HPC)). Further, the T/C by setting is: (dose: 8.0 mg/kg/injection, schedule: Q04DX003 (ip), vehicle: Klucel (hydroxypropylcellulose) (HPC)) 150 % of control and 175 % of control; (dose: 12.0 mg/kg/injection, schedule: Q04DX003 (ip), vehicle: Klucel (hydroxypropylcellulose) (HPC)) 170 % of control and 190 % of control; (dose: 12.5 mg/kg/injection, schedule: Q04DX003 (ip), vehicle: Klucel (hydroxypropylcellulose) (HPC)) 169 % of control; (dose: 18.0 mg/kg/injection, schedule: Q04DX003 (ip), vehicle: Klucel (hydroxypropylcellulose) (HPC)) 150 % of control and 209 % of control.

In the case of `CCCCN(C(=O)C(F)(F)F)C(C)(C)C(SSSC(c1ccc(Cl)cc1)C(C)(C)N(CCCC)C(=O)C(F)(F)F)c1ccc(Cl)cc1` (stereo not given), the T/C is 100 % of control under setting [1]; 100 % of control under setting [2]; 100 % of control (dose: 200.0 mg/kg/injection, schedule: Q01DX009 (ip), vehicle: saline with Tween-80); 100 % of control (dose: 200.0 mg/kg/injection, schedule: Q04DX003 (ip), vehicle: saline with Tween-80); 100 % of control (dose: 400.0 mg/kg/injection, schedule: Q01DX009 (ip), vehicle: saline with Tween-80); 118 % of control (dose: 400.0 mg/kg/injection, schedule: Q04DX003 (ip), vehicle: saline with Tween-80).

In the case of `O=C1c2c(O)ccc(O)c2C(=O)c2c(NCCOCCO)ccc(NCCOCCO)c21`, the T/C was 102 % of control (dose: 25.0 mg/kg/injection, schedule: Q01DX005 (ip), vehicle: saline with Tween-80); 100 % of control under setting [3]; 118 % of control (dose: 100.0 mg/kg/injection, schedule: Q01DX005 (ip), vehicle: saline with Tween-80); 109 % of control (dose: 200.0 mg/kg/injection, schedule: Q01DX005 (ip), vehicle: saline with Tween-80).

In the case of `NC(N)=NCCNC(=O)C1CCC(N)C1` (stereo not given), the T/C is 97 % of control (dose: 0.08 mg/kg/injection, schedule: Q01DX009 (ip), vehicle: saline); 97 % of control (dose: 0.16 mg/kg/injection, schedule: Q01DX009 (ip), vehicle: saline); 99 % of control (dose: 0.32 mg/kg/injection, schedule: Q01DX009 (ip), vehicle: saline); 100 % of control (dose: 0.63 mg/kg/injection, schedule: Q01DX009 (ip), vehicle: saline).

With `CC(C=C1CCCCC1)C(=O)O` (stereo not given), the T/C is, setting by setting: under setting [4], 113 % of control; (dose: 200.0 mg/kg/injection, schedule: Q01DX009 (ip), vehicle: saline) 109 % of control; (dose: 400.0 mg/kg/injection, schedule: Q01DX009 (ip), vehicle: saline) 118 % of control.

Turning to `CCC/[N+]([O-])=C/c1ccc([N+](=O)[O-])o1`, the T/C is, setting by setting: under setting [5], 101 % of control; under setting [6], 105 % of control; under setting [1], 115 % of control.

As to `c1ccc2sc(SSN3CC4CCC(CC4)C3)nc2c1`, the T/C under setting [6] is 102 % of control and 122 % of control.

Regarding `CC1=NNC(=O)C1`, the T/C was 100 % of control (dose: 100.0 mg/kg/injection, schedule: Q01DX001 (ip), vehicle: saline sonified); 100 % of control (dose: 200.0 mg/kg/injection, schedule: Q01DX001 (ip), vehicle: saline sonified); 105 % of control (dose: 400.0 mg/kg/injection, schedule: Q01DX001 (ip), vehicle: saline sonified).

As for `CC(C)(C)C(=O)CC(=O)C(F)(F)C(F)(F)C(F)(F)F.CC(C)(C)C(=O)CC(=O)C(F)(F)C(F)(F)C(F)(F)F.CC(C)(C)C(=O)CC(=O)C(F)(F)C(F)(F)C(F)(F)F.[Fe]`, the T/C is 97 % of control under setting [7]; 114 % of control under setting [8]; 97 % of control (dose: 400.0 mg/kg/injection, schedule: Q01DX009 (ip), vehicle: Klucel (hydroxypropylcellulose) (HPC)).

In the case of `O=[N+]([O-])c1ccc(C(Br)C(Br)c2ccccc2Br)cc1` (stereo not given), the T/C by setting is: under setting [9], 100 % of control; under setting [10], 95 % of control; under setting [11], 90 % of control.

`COC(=O)c1[nH]cnc1/N=N\N(CCF)CCF`: the T/C is, setting by setting: (dose: 16.5 mg/kg/injection, schedule: Q01DX009 (ip), vehicle: saline with Tween-80) 179 % of control; under setting [5], 188 % of control; (dose: 37.5 mg/kg/injection, schedule: Q01DX009 (ip), vehicle: saline with Tween-80) 166 % of control; (dose: 44.0 mg/kg/injection, schedule: Q04DX003 (ip), vehicle: saline with Tween-80) 168 % of control; (dose: 66.0 mg/kg/injection, schedule: Q04DX003 (ip), vehicle: saline with Tween-80) 218 % of control; under setting [2], 86 % of control.

For the compound `CN=c1ccc2nc3ccc(N)cc3sc-2c1`, under setting [3], the T/C was 103 % of control.

As for `Cc1noc(N)c1[N+](=O)[O-]`, the T/C is 95 % of control under setting [12], 109 % of control under setting [13] and 109 % of control under setting [4].

As for `CC(C)(CO)COC(=O)NC1=C(N2CC2)C(=O)C(NC(=O)OCC(C)(C)CO)=C(N2CC2)C1=O`, the T/C by setting is: (dose: 0.75 mg/kg/injection, schedule: Q01DX009 (ip), vehicle: water) 151 % of control and 157 % of control; (dose: 1.5 mg/kg/injection, schedule: Q01DX009 (ip), vehicle: water) 159 % of control and 178 % of control; (dose: 3.0 mg/kg/injection, schedule: Q01DX009 (ip), vehicle: water) 181 % of control and 200 % of control; (dose: 6.0 mg/kg/injection, schedule: Q01DX009 (ip), vehicle: water) 231 % of control and 205 % of control; (dose: 12.0 mg/kg/injection, schedule: Q01DX009 (ip), vehicle: water) 232 % of control and 312 % of control.

For `O=[n+]1ccn2ccccc2c1`, the T/C was 95 % of control under setting [12]; 114 % of control under setting [13]; 95 % of control (dose: 65.0 mg/kg/injection, schedule: Q01DX009 (ip), vehicle: saline); 100 % of control (dose: 75.0 mg/kg/injection, schedule: Q04DX003 (ip), vehicle: saline); 108 % of control under setting [4]; 90 % of control (dose: 150.0 mg/kg/injection, schedule: Q04DX003 (ip), vehicle: saline).

With `C=C1C(c2ccccc2)C(c2ccccc2)=C(C)C(c2ccccc2)=CN1C(=O)c1ccccc1` (stereo not given), the T/C by setting is: under setting [14], 97 % of control; under setting [7], 88 % of control; under setting [8], 95 % of control.

Consider `CCOC(=O)CNC(=O)C(CC(C)C)NC(=O)C1CCCN1C(=O)OCc1ccccc1` (stereo not drawn) (Cbz-Pro-Leu-Gly-OEt; configuration not given here), for which the T/C is, setting by setting: (dose: 12.5 mg/kg/injection, schedule: Q01DX009 (ip), vehicle: Klucel (hydroxypropylcellulose) (HPC)) 124 % of control; (dose: 25.0 mg/kg/injection, schedule: Q01DX009 (ip), vehicle: Klucel (hydroxypropylcellulose) (HPC)) 89 % of control; under setting [14], 95 % of control; under setting [9], 87 % of control; under setting [10], 91 % of control; under setting [11], 87 % of control.
